Source: patent US20220151887A1 (AQUA BANK CO.,LTD., priority 2019, published 2022)

How the values were obtained:
[1] = Description: (§1) The selection criteria were good health and no smoking. The subjects were allowed to sit in a sitting position for 30 minutes after entering a test room set at a room temperature of 24° C. and a relative humidity of 50% to acclimatize to the experimental environment. After acclimation, physiological measurements were conducted. As the physiological measurements, skin temperature measurements were performed.
<<Evaluation of Pupil Contraction Rate in Pupil Reaction to Light by Measuring Pupil Reaction to Light (Single Time Evaluation Test (FIG. 6))>>
After confirming that the pupil dilatation was stable, light stimulation was given for 0.1 seconds. […] The pupil contraction rate (CR), which is the rate of pupil contraction, was determined by the following expression:
Note that the pupil rapidly dilates after it contracts, and the pupil expanding speed (vd) at that time reflects the state of sympathetic nervous activity. The predominance of sympathetic nervous activity and parasympathetic nervous activity in autonomous nervous activity was determined by analysis of changes in pupil diameter.

[2] = remark: listed apart in the source
Description: as §1
<<Evaluation of Sympathetic Nervous Activity by Measuring Skin Temperature ((Single Time Evaluation Test (FIG. 7))>>
Since many of the peripheral blood vessel networks are controlled by sympathetic nervous activity, the predominance or inferiority of sympathetic nervous activity can be evaluated by measuring changes in blood flow in the peripheral site or changes in skin temperature in the peripheral site. Therefore, in this verification, the change in skin temperature was used as the index. In other words, changes in the skin temperatures (at the center of the forehead and the first segment pad of the index finger) of the peripheral site were measured by a temperature sensor (manufactured by Gram Corporation). The increased skin temperature in the test product is determined by the following expression:
where H1 is the temperature of the forehead center part of the control, F1 is the temperature of the finger pad center part of the control, H2 is the temperature of the forehead center part of the sample, and F2 is the temperature of the finger pad center part of the sample.
Note that, in the measurement data analysis in the physiological evaluation, the difference between the control and the blank and the difference between the test product and the blank were compared using the t-test. The significance level of the t-test was set to less than 5%.

[3] = remark: listed apart in the source
Description: (§2) During the test period, each subject was required to perform the same skin care method as they do on a daily basis, and not to add or change cosmetics or supplements.
(§3) In other words, the subjects were divided into two groups, Group A and Group B each having 11 subjects. […] Skin physiological measurements were conducted at the start of the test (zero week), the second and fourth weeks (actually, the subjects also answered questionnaires of the 30 items of the stress checklist and the multifaceted emotion scale for verification of influences on stress, which is a factor of increased skin metabolism, as is omitted here). The measurement items include: the stratum corneum water content; transepidermal water loss; skin viscoelasticity; skin color; facial image analysis by photographing with a digital imaging device (VSIA); and skin blood flow measurement with a non-contact blood flow meter.
(§4) The subjects executed the inhalation for five minutes each time in the morning and evening and approximately 1 hour after each meal, as in the single time test, with the goal of using five times a day.
(§5) The skin physiological measurements include: the stratum corneum water content; transepidermal water loss; skin viscoelasticity; skin color; facial image analysis by photographing with a digital imaging device (VSIA); and skin blood flow measurement with a non-contact blood flow meter. […] In the measurements listed below, the cheek site, which was the measurement site, was measured after 15 minutes of acclimation in a constant temperature and humidity chamber (temperature 20±2° C., humidity 50±10%) after the face washing. What was measured in each measurement are described below.
Skin images of the measurement site were photographed using VISIA (registered trademark) Evolution (Canfield Imaging Systems), and each skin property was analyzed. The software attached to the device was used to measure the scores of pores, spots, wrinkles, texture, redness, porphyrin, and brown spots. The measurements were performed at zero, second and fourth weeks.
(§6) The p-value was calculated as the probability to determine whether there was a statistically significant difference in the difference average values of the respective groups, and the effect size was calculated as an index representing the magnitude of the difference between the difference average values, so that the two groups are compared with each other.

[4] = hydrogen continuous use period 2 weeks, difference not significant
Description: as §2, §3, §4, §5
The measurements were performed at zero, second and fourth weeks.

[5] = remark: listed apart in the source
Description: as §2, §3, §4
as §5, with “below. […]” for “below.”
as §6

[6] = hydrogen continuous use period 2 weeks, cheek, not significant vs non-continuous use period
Description: as §2
In other words, the subjects were divided into two groups, Group A and Group B each having 11 subjects. […] Skin physiological measurements were conducted at the start of the test (zero week), the second and fourth weeks (actually, the subjects also answered questionnaires of the 30 items of the stress checklist and the multifaceted emotion scale for verification of influences on stress, which is a factor of increased skin metabolism, as is omitted here). […]
as §5
The degree of skin moisturization was determined by measuring the stratum corneum water content. […]

[7] = hydrogen continuous use period vs non-continuous use period
[8] = hydrogen continuous use period vs nonuse period

For `[HH]` [hydrogen], which “pupil expanding speed (vd)” value ([1]; after hydrogen inhalation (not shown)) is on record?
The value was “almost unchanged”.

And the “pupil contraction rate in the pupil reaction to light” value ([1]; after hydrogen inhalation for 1, 3, 5, 7 and 9 minutes (FIG. 6))?
The value was “increased significantly in a time-dependent manner”.

What about the “pupil contraction rate CR” value ([1]; after hydrogen inhalation, especially 5 minutes or more, vs before inhalation, p<0.001) of the same molecule?
Its value is “significantly increased”.

And the “skin temperature of the index finger, average increase” value ([2]; hydrogen inhalation for 5 minutes vs control, 17 subjects, p<0.001)?
Its value is 3.6 °C.

What about the “skin temperature of the forehead, change” value ([2]; hydrogen inhalation for 5 minutes vs spontaneous breathing control) of the same molecule?
The value was “hardly found to change”.

What about the “skin temperature of the index finger, increase in individual subjects” value ([2]; hydrogen inhalation for 5 minutes, some subjects) of the same molecule?
Its value is ≥ 6 °C.

And the “number of porphyrins, difference average value” ([3]; hydrogen continuous use period 2 weeks, difference not significant)?
Its value is −103.05.

And the “number of spots, difference average value” ([3]; hydrogen continuous use period 2 weeks, p 0.0012 vs nonuse period)?
Its value is −1.8.

And the “redness of the skin color, difference average value” ([3]; hydrogen continuous use period 2 weeks, p 0.042 vs non-continuous use period)?
The value was −5.1.

What about the “number of brown spots, difference average value” ([3]; hydrogen continuous use period 2 weeks, p 0.046 vs nonuse period) of the same molecule?
Its value is −13.7.

What about the “VISIA pores, measured values” [3, 7] of the same molecule?
The value was “no difference”.

And the “VISIA texture, measured values” [3, 7]?
Its value is “no difference”.

What about the “VISIA wrinkles, measured values” [3, 7] of the same molecule?
Its value is “no difference”.

And the “redness, effect size” value [3, 7]?
The value was 0.65.

What about the “number of brown spots, effect size” value [3, 8] of the same molecule?
The value was 0.68.

What about the “number of spots, effect size” value [3, 8] of the same molecule?
The value was 0.86.

And the “skin color ΔL* (black and white degree), difference average value” ([4]; cheek)?
Its value is “+0.30”.

What about the “skin color Δa* (redness degree), difference average value” ([4]; cheek) of the same molecule?
Its value is −0.23.

And the “skin color Δb* (yellowness degree), difference average value” ([4]; cheek)?
Its value is −0.20.

What about the “skin blood flow changes, difference average value” ([4]; entire face) of the same molecule?
The value was −0.20.

And the “instantaneous skin return rate R7 (Ur/Uf), difference average value” ([5]; hydrogen continuous use period 2 weeks, cheek, p 0.028 vs nonuse period)?
Its value is 0.01.

What about the “R7 (Ur/Uf) effect size” value ([5]; hydrogen continuous use period vs hydrogen nonuse period) of the same molecule?
Its value is 0.74.

What about the “skin return rate R2, difference average value” ([5]; hydrogen use period 2 weeks, cheek, p 0.076 vs nonuse period) of the same molecule?
The value was 0.01.

And the “skin (stratum corneum) water content, difference average value” ([6]; 5 min about five times a day)?
Its value is “+34.9 μS”.

What about the “transepidermal water loss, difference average value” [6] of the same molecule?
Its value is “+34.9”.
